Data reported in PMC6979384, “Characterization of the plant homeodomain (PHD) reader family for their histone tail interactions” (Epigenetics & Chromatin, 2020).
Where no end group is shown, it is not given here. [ ]: non-standard residue; d: D form. Lys(Me2) = CN(C)CCCC[C@H](N)C(=O)O

Columns and labels:
Test in all cases: Histone peptide microarray
Assay type in all cases: binding, human
AIRE (PP) = test system: AIRE (PP)
Excerpt: (§1) To more comprehensively define the histone interactions of the 31 PHD readers identified from the domain microarray analyses, we probed each on an alternate microarray platform containing a library of 293 synthetic histone peptides with single or combinatorial PTMs (Additional file 2: Figure S4 and Additional file 3: Table S2).
(§2) The 31 GST-tagged PHD readers identified in the PHD finger domain array were expressed and purified as previously. Histone peptide arrays and peptide pulldown assays were conducted as recently described (specifically, the optimized protocol from Petell et al. for the former).
(§3) Supplementary file 13072_2020_328_MOESM3_ESM.xlsx: Additional file 3: Table S2. […] Excel Tab Peptide List is a compiled list of the entire 293 histone peptide library with amino acid sequence ranges. […] Each number corresponds to the peptide number designated in Peptide List. Excel Tab Average Signals is a compiled set of binding data: chromatin reader at 0.5 μM vs. entire 293 peptide library. Data is presented as the average and standard deviation of 4 replicates. The average signals are colored to indicate signal intensity with green being strong and white being weak/low. […] Key: red= stronger relative binding; blue = weaker relative binding. Excel Tab Array info summary is a table summarizing the domains, sequence coverage, array signal range, and noise for each of the GST-tagged readers assayed on the peptide microarrays.

CHD5 (PCC) = test system: CHD5 (PCC)
Excerpt: as §1, §2, §3

RAG2 = test system: RAG2
Excerpt: as §1, §2, §3

PHF2 = test system: PHF2
Excerpt: as §1, §2, §3

MORC3 (CW) = test system: MORC3 (CW)
Excerpt: as §1, §2, §3

CHD4 (PPCC) = test system: CHD4 (PPCC)
Excerpt: as §1, §2, §3

KDM5B (1) = test system: KDM5B (1)
Excerpt: as §1, §2, §3

PHRF1 (RP) = test system: PHRF1 (RP)
Excerpt: as §1, §2, §3

TAF3 = test system: TAF3
Excerpt: as §1, §2, §3

SP140L = test system: SP140L
Excerpt: as §1, §2, §3

DIDO1 = test system: DIDO1
Excerpt: as §1, §2, §3

BAZ2B = test system: BAZ2B
Excerpt: as §1, §2, §3

PHF8 = test system: PHF8
Excerpt: as §1, §2, §3

ING1 = test system: ING1
Excerpt: as §1, §2, §3

BPTF (PB) = test system: BPTF (PB)
Excerpt: as §1, §2, §3

PHF21A = test system: PHF21A
Excerpt: as §1, §2, §3

TRIM66 (PB) = test system: TRIM66 (PB)
Excerpt: as §1, §2, §3

KDM5A (1) = test system: KDM5A (1)
Excerpt: as §1, §2, §3

ING4 = test system: ING4
Excerpt: as §1, §2, §3

KDM7A = test system: KDM7A
Excerpt: as §1, §2, §3

PHF13 = test system: PHF13
Excerpt: as §1, §2, §3

CHD5 (PPCC) = test system: CHD5 (PPCC)
Excerpt: as §1, §2, §3

ING3 = test system: ING3
Excerpt: as §1, §2, §3

PHF23 = test system: PHF23
Excerpt: as §1, §2, §3

ING2 = test system: ING2
Excerpt: as §1, §2, §3

KDM4C (TTP) = test system: KDM4C (TTP)
Excerpt: as §1, §2, §3

KDM5B (3) = test system: KDM5B (3)
Excerpt: as §1, §2, §3

MLL5 = test system: MLL5
Excerpt: as §1, §2, §3

ING5 = test system: ING5
Excerpt: as §1, §2, §3

DPF2 (PPC2W2) = test system: DPF2 (PPC2W2)
Excerpt: as §1, §2, §3

KDM5A (3) = test system: KDM5A (3)
Excerpt: as §1, §2, §3

[1] = histone peptide array, GST-tagged reader, arrays performed twice, n of 4
[2] = histone peptide array, GST-tagged reader, PPCC = Dual PHD + Dual Chromodomain, arrays performed twice, n of 4
[3] = histone peptide array, GST-tagged reader, PB = PHD + Bromodomain, arrays performed twice, n of 4

## H2BK16ac: H2B 1-24 [Peptide H2BK16ac]
AIRE (PP); AIRE (PP), sheet "Array Heatmap", each array performed twice, total n = 4
  Array Heatmap value (peptide array signal): 0.4203
CHD5 (PCC); CHD5 (PCC), sheet "Array Heatmap", each array performed twice, total n = 4
  Array Heatmap value (peptide array signal): 0.7842
RAG2; RAG2, sheet "Array Heatmap", each array performed twice, total n = 4
  Array Heatmap value (peptide array signal): 0.2422
PHF2; PHF2, sheet "Array Heatmap", each array performed twice, total n = 4
  Array Heatmap value (peptide array signal): 0.5633
MORC3 (CW); MORC3 (CW), sheet "Array Heatmap", each array performed twice, total n = 4
  Array Heatmap value (peptide array signal): 0.3691
CHD4 (PPCC); CHD4 (PPCC), sheet "Array Heatmap", each array performed twice, total n = 4
  Array Heatmap value (peptide array signal): 0.5943
KDM5B (1); KDM5B (1), sheet "Array Heatmap", each array performed twice, total n = 4
  Array Heatmap value (peptide array signal): 0.6719
PHRF1 (RP); PHRF1 (RP), sheet "Array Heatmap", each array performed twice, total n = 4
  Array Heatmap value (peptide array signal): 0.501
TAF3; TAF3, sheet "Array Heatmap", each array performed twice, total n = 4
  Array Heatmap value (peptide array signal): 0.2759
SP140L; SP140L, sheet "Array Heatmap", each array performed twice, total n = 4
  Array Heatmap value (peptide array signal): 0.3579
DIDO1; DIDO1, sheet "Array Heatmap", each array performed twice, total n = 4
  Array Heatmap value (peptide array signal): 0.7223
BAZ2B; BAZ2B, sheet "Array Heatmap", each array performed twice, total n = 4
  Array Heatmap value (peptide array signal): 0.4705
PHF8; PHF8, sheet "Array Heatmap", each array performed twice, total n = 4
  Array Heatmap value (peptide array signal): 0.3517
ING1; ING1, sheet "Array Heatmap", each array performed twice, total n = 4
  Array Heatmap value (peptide array signal): 0.5501
BPTF (PB); BPTF (PB), sheet "Array Heatmap", each array performed twice, total n = 4
  Array Heatmap value (peptide array signal): 0.3487
PHF21A; PHF21A, sheet "Array Heatmap", each array performed twice, total n = 4
  Array Heatmap value (peptide array signal): 0.4621
TRIM66 (PB); TRIM66 (PB), sheet "Array Heatmap", each array performed twice, total n = 4
  Array Heatmap value (peptide array signal): 0.6089
KDM5A (1); KDM5A (1), sheet "Array Heatmap", each array performed twice, total n = 4
  Array Heatmap value (peptide array signal): 0.4583
ING4; ING4, sheet "Array Heatmap", each array performed twice, total n = 4
  Array Heatmap value (peptide array signal): 0.4481
KDM7A; KDM7A, sheet "Array Heatmap", each array performed twice, total n = 4
  Array Heatmap value (peptide array signal): 0.3335
PHF13; PHF13, sheet "Array Heatmap", each array performed twice, total n = 4
  Array Heatmap value (peptide array signal): 0.6297
CHD5 (PPCC); CHD5 (PPCC), sheet "Array Heatmap", each array performed twice, total n = 4
  Array Heatmap value (peptide array signal): 0.5498
ING3; ING3, sheet "Array Heatmap", each array performed twice, total n = 4
  Array Heatmap value (peptide array signal): 0.4774
PHF23; PHF23, sheet "Array Heatmap", each array performed twice, total n = 4
  Array Heatmap value (peptide array signal): 0.5681
ING2; ING2, sheet "Array Heatmap", each array performed twice, total n = 4
  Array Heatmap value (peptide array signal): 0.6054
KDM4C (TTP); KDM4C (TTP), sheet "Array Heatmap", each array performed twice, total n = 4
  Array Heatmap value (peptide array signal): 0.4673
KDM5B (3); KDM5B (3), sheet "Array Heatmap", each array performed twice, total n = 4
  Array Heatmap value (peptide array signal): 0.4678
MLL5; MLL5, sheet "Array Heatmap", each array performed twice, total n = 4
  Array Heatmap value (peptide array signal): 0.5839
ING5; ING5, sheet "Array Heatmap", each array performed twice, total n = 4
  Array Heatmap value (peptide array signal): 0.3562
DPF2 (PPC2W2); DPF2 (PPC2W2), sheet "Array Heatmap", each array performed twice, total n = 4
  Array Heatmap value (peptide array signal): 0.6685
KDM5A (3); KDM5A (3), sheet "Array Heatmap", each array performed twice, total n = 4
  Array Heatmap value (peptide array signal): 0.4534

## H3.3K36me2 (27-45): H3.3 27-45 (KSAPSTGGV[Lys(Me2)]KPHRYRPGT; UniProt P84243 28-46, looked up, fragment)
AIRE (PP); [1]
  Array Heatmap signal, AIRE (PP): 0.4867
CHD5 (PCC); histone peptide array, GST-tagged reader, PCC = PHD + Dual Chromodomain, arrays performed twice, n of 4
  Array Heatmap signal, CHD5 (PCC): 0.8212
RAG2; [1]
  Array Heatmap signal, RAG2: 0.3087
PHF2; [1]
  Array Heatmap signal, PHF2: 0.5053
MORC3 (CW); histone peptide array, GST-tagged reader, CW = CW-type Zn-finger, arrays performed twice, n of 4
  Array Heatmap signal, MORC3 (CW): 0.4027
CHD4 (PPCC); [2]
  Array Heatmap signal, CHD4 (PPCC): 0.5698
KDM5B (1); [1]
  Array Heatmap signal, KDM5B (1): 0.6701
PHRF1 (RP); [1]
  Array Heatmap signal, PHRF1 (RP): 0.4622
TAF3; [1]
  Array Heatmap signal, TAF3: 0.2867
SP140L; [1]
  Array Heatmap signal, SP140L: 0.3879
DIDO1; [1]
  Array Heatmap signal, DIDO1: 0.7878
BAZ2B; [1]
  Array Heatmap signal, BAZ2B: 0.4965
PHF8; [1]
  Array Heatmap signal, PHF8: 0.3824
ING1; [1]
  Array Heatmap signal, ING1: 0.5396
BPTF (PB); [3]
  Array Heatmap signal, BPTF (PB): 0.3735
PHF21A; [1]
  Array Heatmap signal, PHF21A: 0.4763
TRIM66 (PB); [3]
  Array Heatmap signal, TRIM66 (PB): 0.6104
KDM5A (1); [1]
  Array Heatmap signal, KDM5A (1): 0.505
ING4; [1]
  Array Heatmap signal, ING4: 0.4773
KDM7A; [1]
  Array Heatmap signal, KDM7A: 0.3737
PHF13; [1]
  Array Heatmap signal, PHF13: 0.6587
CHD5 (PPCC); [2]
  Array Heatmap signal, CHD5 (PPCC): 0.6024
ING3; [1]
  Array Heatmap signal, ING3: 0.5215
PHF23; [1]
  Array Heatmap signal, PHF23: 0.5877
ING2; [1]
  Array Heatmap signal, ING2: 0.5971
KDM4C (TTP); histone peptide array, GST-tagged reader, TTP = Tandem Tudor domain + PHD, arrays performed twice, n of 4
  Array Heatmap signal, KDM4C (TTP): 0.5418
KDM5B (3); [1]
  Array Heatmap signal, KDM5B (3): 0.5383
MLL5; [1]
  Array Heatmap signal, MLL5: 0.5651
ING5; [1]
  Array Heatmap signal, ING5: 0.3908
DPF2 (PPC2W2); histone peptide array, GST-tagged reader, PPC2W2 = Dual PHD + C2W2-type Zn-finger, arrays performed twice, n of 4
  Array Heatmap signal, DPF2 (PPC2W2): 0.6778
KDM5A (3); [1]
  Array Heatmap signal, KDM5A (3): 0.4963
